Columns and labels:
Experiment in all cases: relative viability (nuclei count vs DMSO), 5 days (fraction); higher = more cells survive
NCI-H1975 = system: NCI-H1975
In short: (§1)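 Five library-drug doses in √10 steps were combined with a fixed anchor-drug dose, or a single drug was given alone, by pin tool to lung cancer cell lines in 1536-well plates the day after seeding. Nuclei were stained and counted after 5 days. Relative viability is the nuclei count in treated wells over that in vehicle wells, taken as the median of duplicate plates.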

LCLC-97TM1 = system: LCLC-97TM1
In short: as §1

NCI-H2170 = system: NCI-H2170
In short: as §1

EPLC-272H = system: EPLC-272H
In short: as §1

UMC-11 = system: UMC-11
In short: as §1

NCI-H1944 = system: NCI-H1944
In short: as §1

NCI-H2342 = system: NCI-H2342
In short: as §1

LC-2-ad = system: LC-2-ad
In short: as §1

SW 900 = system: SW 900
In short: as §1

NCI-H460 = system: NCI-H460
In short: as §1

NCI-H1915 = system: NCI-H1915
In short: as §1

HCC-366 = system: HCC-366
In short: as §1

NCI-H2085 = system: NCI-H2085
In short: as §1

NCI-H1755 = system: NCI-H1755
In short: as §1

NCI-H1793 = system: NCI-H1793
In short: as §1

SK-LU-1 = system: SK-LU-1
In short: as §1

LXF-289 = system: LXF-289
In short: as §1

A-427 = system: A-427
In short: as §1

HOP-62 = system: HOP-62
In short: as §1

HCC-78 = system: HCC-78
In short: as §1

NCI-H1792 = system: NCI-H1792
In short: as §1

COR-L 105 = system: COR-L 105
In short: as §1

LU99A = system: LU99A
In short: as §1

NCI-H358 = system: NCI-H358
In short: as §1

Question: For C[C@@H]1CN(CC(=O)Nc2ccc3c(c2)Cc2cccc(-c4cc(=O)cc(N5CCOCC5)o4)c2S3)C[C@H](C)O1 + Cc1nc(Nc2ncc(C(=O)Nc3c(C)cccc3Cl)s2)cc(N2CCN(CCO)CC2)n1 [Dasatinib] (partner 0.075 µM), which relative viability (NCI-H1975; first compound 0.04 µM) is on record?
Answer: 0.378

Question: What about the relative viability (NCI-H1975; first compound 0.1265 µM) of the same molecule?
Answer: 0.39

Question: What about the relative viability (NCI-H1975; first compound 0.4 µM) of the same molecule?
Answer: 0.368

Question: What about the relative viability (NCI-H1975; first compound 4 µM) of the same molecule?
Answer: 0.249

Question: What about the relative viability (LCLC-97TM1; first compound 0.04 µM) of the same molecule?
Answer: 0.839

Question: What about the relative viability (LCLC-97TM1; first compound 0.1265 µM) of the same molecule?
Answer: 0.744

Question: What about the relative viability (LCLC-97TM1; first compound 0.4 µM) of the same molecule?
Answer: 0.794

Question: What about the relative viability (LCLC-97TM1; first compound 4 µM) of the same molecule?
Answer: 0.893

Question: And the relative viability (NCI-H2170; first compound 0.04 µM)?
Answer: 0.569

Question: And the relative viability (NCI-H2170; first compound 0.1265 µM)?
Answer: 0.581

Question: What about the relative viability (NCI-H2170; first compound 0.4 µM) of the same molecule?
Answer: 0.711

Question: And the relative viability (NCI-H2170; first compound 4 µM)?
Answer: 0.57

Question: What about the relative viability (EPLC-272H; first compound 0.04 µM) of the same molecule?
Answer: 0.459

Question: What about the relative viability (EPLC-272H; first compound 0.1265 µM) of the same molecule?
Answer: 0.284

Question: What about the relative viability (EPLC-272H; first compound 0.4 µM) of the same molecule?
Answer: 0.319

Question: And the relative viability (EPLC-272H; first compound 4 µM)?
Answer: 0.341

Question: And the relative viability (UMC-11; first compound 0.04 µM)?
Answer: 0.475

Question: What about the relative viability (UMC-11; first compound 0.1265 µM) of the same molecule?
Answer: 0.478

Question: What about the relative viability (UMC-11; first compound 0.4 µM) of the same molecule?
Answer: 0.505

Question: And the relative viability (UMC-11; first compound 4 µM)?
Answer: 0.448

Question: What about the relative viability (NCI-H1944; first compound 0.04 µM) of the same molecule?
Answer: 0.21

Question: And the relative viability (NCI-H1944; first compound 0.1265 µM)?
Answer: 0.236

Question: What about the relative viability (NCI-H1944; first compound 0.4 µM) of the same molecule?
Answer: 0.263

Question: And the relative viability (NCI-H1944; first compound 4 µM)?
Answer: 0.264

Question: What about the relative viability (NCI-H2342; first compound 0.04 µM) of the same molecule?
Answer: 0.326

Question: And the relative viability (NCI-H2342; first compound 0.1265 µM)?
Answer: 0.292

Question: What about the relative viability (NCI-H2342; first compound 0.4 µM) of the same molecule?
Answer: 0.29

Question: What about the relative viability (NCI-H2342; first compound 4 µM) of the same molecule?
Answer: 0.306

Question: And the relative viability (LC-2-ad; first compound 0.04 µM)?
Answer: 0.583

Question: And the relative viability (LC-2-ad; first compound 0.1265 µM)?
Answer: 0.55

Question: What about the relative viability (LC-2-ad; first compound 0.4 µM) of the same molecule?
Answer: 0.487

Question: What about the relative viability (LC-2-ad; first compound 4 µM) of the same molecule?
Answer: 0.492

Question: What about the relative viability (SW 900; first compound 0.04 µM) of the same molecule?
Answer: 0.509

Question: And the relative viability (SW 900; first compound 0.1265 µM)?
Answer: 0.801

Question: What about the relative viability (SW 900; first compound 0.4 µM) of the same molecule?
Answer: 0.66

Question: What about the relative viability (SW 900; first compound 4 µM) of the same molecule?
Answer: 0.375

Question: And the relative viability (NCI-H460; first compound 0.04 µM)?
Answer: 0.606

Question: What about the relative viability (NCI-H460; first compound 0.1265 µM) of the same molecule?
Answer: 0.484

Question: What about the relative viability (NCI-H460; first compound 0.4 µM) of the same molecule?
Answer: 0.427

Question: And the relative viability (NCI-H460; first compound 4 µM)?
Answer: 0.339

Question: And the relative viability (NCI-H1915; first compound 0.04 µM)?
Answer: 0.307

Question: What about the relative viability (NCI-H1915; first compound 0.1265 µM) of the same molecule?
Answer: 0.308

Question: What about the relative viability (NCI-H1915; first compound 0.4 µM) of the same molecule?
Answer: 0.319

Question: What about the relative viability (NCI-H1915; first compound 4 µM) of the same molecule?
Answer: 0.278

Question: What about the relative viability (HCC-366; first compound 0.04 µM) of the same molecule?
Answer: 0.7

Question: What about the relative viability (HCC-366; first compound 0.1265 µM) of the same molecule?
Answer: 0.636

Question: What about the relative viability (HCC-366; first compound 0.4 µM) of the same molecule?
Answer: 0.427

Question: And the relative viability (HCC-366; first compound 4 µM)?
Answer: 0.529

Question: What about the relative viability (NCI-H2085; first compound 0.04 µM) of the same molecule?
Answer: 0.222

Question: And the relative viability (NCI-H2085; first compound 0.1265 µM)?
Answer: 0.245

Question: And the relative viability (NCI-H2085; first compound 0.4 µM)?
Answer: 0.235

Question: And the relative viability (NCI-H2085; first compound 4 µM)?
Answer: 0.247

Question: What about the relative viability (NCI-H1755; first compound 0.04 µM) of the same molecule?
Answer: 0.455

Question: What about the relative viability (NCI-H1755; first compound 0.1265 µM) of the same molecule?
Answer: 0.397

Question: What about the relative viability (NCI-H1755; first compound 0.4 µM) of the same molecule?
Answer: 0.427

Question: And the relative viability (NCI-H1755; first compound 4 µM)?
Answer: 0.37

Question: And the relative viability (NCI-H1793; first compound 0.04 µM)?
Answer: 0.403

Question: And the relative viability (NCI-H1793; first compound 0.1265 µM)?
Answer: 0.373

Question: What about the relative viability (NCI-H1793; first compound 0.4 µM) of the same molecule?
Answer: 0.414

Question: And the relative viability (NCI-H1793; first compound 4 µM)?
Answer: 0.342

Question: What about the relative viability (SK-LU-1; first compound 0.04 µM) of the same molecule?
Answer: 0.206

Question: What about the relative viability (SK-LU-1; first compound 0.1265 µM) of the same molecule?
Answer: 0.203

Question: What about the relative viability (SK-LU-1; first compound 0.4 µM) of the same molecule?
Answer: 0.171

Question: And the relative viability (SK-LU-1; first compound 4 µM)?
Answer: 0.15

Question: And the relative viability (LXF-289; first compound 0.04 µM)?
Answer: 0.185

Question: And the relative viability (LXF-289; first compound 0.1265 µM)?
Answer: 0.223

Question: What about the relative viability (LXF-289; first compound 0.4 µM) of the same molecule?
Answer: 0.203

Question: What about the relative viability (LXF-289; first compound 4 µM) of the same molecule?
Answer: 0.232

Question: And the relative viability (A-427; first compound 0.04 µM)?
Answer: 0.737

Question: What about the relative viability (A-427; first compound 0.1265 µM) of the same molecule?
Answer: 0.719

Question: And the relative viability (A-427; first compound 0.4 µM)?
Answer: 0.729

Question: And the relative viability (A-427; first compound 4 µM)?
Answer: 0.669

Question: And the relative viability (HOP-62; first compound 0.04 µM)?
Answer: 0.664

Question: And the relative viability (HOP-62; first compound 0.1265 µM)?
Answer: 0.57

Question: And the relative viability (HOP-62; first compound 0.4 µM)?
Answer: 0.687

Question: What about the relative viability (HOP-62; first compound 4 µM) of the same molecule?
Answer: 0.518

Question: What about the relative viability (HCC-78; first compound 0.04 µM) of the same molecule?
Answer: 0.366

Question: What about the relative viability (HCC-78; first compound 0.1265 µM) of the same molecule?
Answer: 0.363

Question: And the relative viability (HCC-78; first compound 0.4 µM)?
Answer: 0.362

Question: What about the relative viability (HCC-78; first compound 4 µM) of the same molecule?
Answer: 0.519

Question: And the relative viability (NCI-H1792; first compound 0.04 µM)?
Answer: 0.74

Question: What about the relative viability (NCI-H1792; first compound 0.1265 µM) of the same molecule?
Answer: 0.684

Question: And the relative viability (NCI-H1792; first compound 0.4 µM)?
Answer: 0.788

Question: And the relative viability (NCI-H1792; first compound 4 µM)?
Answer: 0.72

Question: What about the relative viability (COR-L 105; first compound 0.04 µM) of the same molecule?
Answer: 0.348

Question: And the relative viability (COR-L 105; first compound 0.1265 µM)?
Answer: 0.413

Question: What about the relative viability (COR-L 105; first compound 0.4 µM) of the same molecule?
Answer: 0.383

Question: And the relative viability (COR-L 105; first compound 4 µM)?
Answer: 0.336

Question: And the relative viability (LU99A; first compound 0.04 µM)?
Answer: 0.523

Question: And the relative viability (LU99A; first compound 0.1265 µM)?
Answer: 0.491

Question: What about the relative viability (LU99A; first compound 0.4 µM) of the same molecule?
Answer: 0.488

Question: And the relative viability (LU99A; first compound 4 µM)?
Answer: 0.523

Question: And the relative viability (NCI-H358; first compound 0.04 µM)?
Answer: 0.2

Question: What about the relative viability (NCI-H358; first compound 0.1265 µM) of the same molecule?
Answer: 0.163

Question: What about the relative viability (NCI-H358; first compound 0.4 µM) of the same molecule?
Answer: 0.144

Question: And the relative viability (NCI-H358; first compound 4 µM)?
Answer: 0.157

From the supplement of paper PMC10307832
